For 21 compounds, IC50 results are on record in patent US11667651B2, “Aminopyridine derivatives as phosphatidylinositol phosphate kinase inhibitors” (HiberCell, Inc., priority 2017, dated 2023).

Holding throughout (type): biochemical
The target of test [1] is T1, PIP4K2B (Homo sapiens, UniProt P78356).
T1 construct: made in house; host or cells: E. coli
T1 sequence (P78356 1-416): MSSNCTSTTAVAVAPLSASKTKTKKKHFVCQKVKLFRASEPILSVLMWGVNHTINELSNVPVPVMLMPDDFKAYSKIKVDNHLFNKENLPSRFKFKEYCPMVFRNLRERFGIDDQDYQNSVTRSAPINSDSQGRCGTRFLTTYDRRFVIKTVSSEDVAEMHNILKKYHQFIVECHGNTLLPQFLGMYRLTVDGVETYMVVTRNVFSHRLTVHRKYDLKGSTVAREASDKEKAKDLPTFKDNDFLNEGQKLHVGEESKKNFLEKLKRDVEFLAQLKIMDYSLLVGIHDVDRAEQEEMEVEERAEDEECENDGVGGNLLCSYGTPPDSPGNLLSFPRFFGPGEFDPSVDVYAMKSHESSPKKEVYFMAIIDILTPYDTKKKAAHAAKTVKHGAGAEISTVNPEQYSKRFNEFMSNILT
The experiment in a line: Trans-FI P kinase assay PIP4K2B (Table 4). The following applies: compounds listed under IC50 bins; read-out: Trans-FI P kinase assays: PIP4K2B IC50. In outline: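 Transcreener FI detection (Ex 584/Em 623) of GDP, converted via calibration curve, gives IC50 from residual activity versus log concentration (highest 4.8 μM). Reaction: 80 μM PI5P plus DOPE carrier, 100 μM GTP, 5 nM GST-tagged enzyme, pH 7.3 HEPES with MgCl2 and 5% DMSO, 2 h after 1 h enzyme-compound preincubation at 27° C.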

The target of test [2] is T2, PIP4K2A (Homo sapiens, UniProt P48426).
T2 sequence (P48426 1-406): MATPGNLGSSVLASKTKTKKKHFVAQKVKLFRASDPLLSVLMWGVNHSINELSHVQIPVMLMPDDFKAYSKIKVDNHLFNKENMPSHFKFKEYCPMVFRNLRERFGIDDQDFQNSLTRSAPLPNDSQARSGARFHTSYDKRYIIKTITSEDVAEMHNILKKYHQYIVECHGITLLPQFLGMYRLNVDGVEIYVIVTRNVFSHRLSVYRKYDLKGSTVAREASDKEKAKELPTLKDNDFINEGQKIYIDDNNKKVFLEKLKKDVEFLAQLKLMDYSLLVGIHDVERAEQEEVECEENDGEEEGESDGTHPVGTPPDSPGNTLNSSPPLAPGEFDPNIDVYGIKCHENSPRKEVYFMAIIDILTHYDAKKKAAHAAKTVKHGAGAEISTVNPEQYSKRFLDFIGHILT
The experiment in a line: Kinase Assay PIP4K2 A (Table 2). Set-up: 4 nM PIP4K2A (full length protein, SignalChem); purchased SignalChem. The following applies: compounds listed under IC50 bins. In a few lines:
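ADP-Glo luminescent read-out after 1 h room-temperature kinase reaction, started with 60 μM ATP solution following 15 min compound pre-incubation. Enzyme/substrate mix: 4 nM full-length PIP4K2A plus 100 μM PI(5)P diC8; buffer MOPS pH 7.2 with 25 mM MgCl2 and Tween 20. IC50 from 10-point, 3-fold titrations normalized to DMSO.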

Test [3] addresses T2, PIP4K2A. The experiment in a line: ADP-glo kinase assay PIP4K 2A (Table 3). Set-up: made in house; host or cells: E. coli. Particulars: compounds listed under IC50 bins. In a few lines:
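ADP-Glo luminescence detected ADP after 1 h RT reaction started by ATP (60 μM solution) on full-length PIP4K2A (4 nM in mix) and PI(5)P diC8 (100 μM in mix), preceded by 15 min enzyme-compound preincubation in MOPS pH 7.2/25 mM MgCl2. Percent inhibition versus DMSO over 10 concentrations fitted for IC50.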
(In general: In ADP-Glo the light output rises with the ADP produced.)

On to `CN(C)C(=O)c1cnc(-c2ccc(Nc3cccnc3)nc2)nc1` [Example 29, N,N-dimethyl-2-(6-(pyridin-3-ylamino)pyridin-3-yl)pyrimidine-5-carboxamide], for which the IC50 in test [1], in test [2] and in test [3] was above 1000 nM throughout.

With `CN(C)C(=O)c1ccc(-c2ccc(Nc3cnc4c(c3)N(C(=O)OC(C)(C)C)CCO4)nc2)cc1` [Example 45, tert-butyl 7-((5-(4-(dimethylcarbamoyl)phenyl)pyridin-2-yl)amino)-2,3-dihydro-1H-pyrido[2,3-b][1,4]oxazine-1-carboxylate], the figures for the IC50 in test [1], in test [2] and in test [3] were 10 to 100 nM, 10 to 100 nM and 100 to 1000 nM, respectively.

Regarding `CN(C)C(=O)c1ccc(-c2ccc(Nc3cnc4c(c3)NCCO4)nc2)cc1` [Example 46, 4-(6-((2,3-dihydro-1H-pyrido[2,3-b][1,4]oxazin-7-yl)amino)pyridin-3-yl)-N,N-dimethylbenzamide], the figures for the IC50 in test [1], in test [2] and in test [3] were 10 to 100 nM, 10 to 100 nM and 100 to 1000 nM, respectively.

On to `CN(C)C(=O)c1ccc(-c2ccc(Nc3cncc(OC(F)F)c3)nc2)cc1` [Example 49, 4-(6-((5-(difluoromethoxy)pyridin-3-yl)amino)pyridin-3-yl)-N,N-dimethylbenzamide], for which the IC50 (in general, the midpoint of a concentration-inhibition curve) is above 1000 nM in test [1], 100 to 1000 nM in test [2] and 100 to 1000 nM in test [3].

Consider `CN(C)C(=O)c1ccc(-c2ccc(Nc3cnc4c(c3)OCCO4)nc2)cc1` [Example 50, 4-(6-((2,3-dihydro-[1,4]dioxino[2,3-b]pyridin-7-yl)amino)pyridin-3-yl)-N,N-dimethylbenzamide], for which the IC50 was 10 to 100 nM in test [1], 10 to 100 nM in test [2] and 100 to 1000 nM in test [3].

Take `CN(C)C(=O)c1ccc(-c2ccc(Nc3ccc(CCN4CCOCC4)nc3)nc2)cc1` [Example 51, N,N-dimethyl-4-(6-((6-(2-morpholinoethyl)pyridin-3-yl)amino)pyridin-3-yl)benzamide]: the IC50 in test [1], in test [2] and in test [3] was above 1000 nM throughout.

On to `CN(C)C(=O)c1ccc(-c2ccc(Nc3cnc4c(c3)CCCO4)nc2)cc1` [Example 58, 4-(6-((3,4-dihydro-2H-pyrano[2,3-b]pyridin-6-yl)amino)pyridin-3-yl)-N,N-dimethylbenzamide], for which the figures for the IC50 in test [1], in test [2] and in test [3] were 10 to 100 nM, 10 to 100 nM and 100 to 1000 nM, respectively.

In the case of `CC(=O)N1CCN(C)c2ncc(Nc3ccc(-c4ccc(C(=O)N(C)C)cc4)cn3)cc21` [Example 59, 4-(6-((1-acetyl-4-methyl-1,2,3,4-tetrahydropyrido[2,3-b]pyrazin-7-yl)amino)pyridin-3-yl)-N,N-dimethylbenzamide], the half-inhibitory concentration (IC50) in test [1] was in the range of 10 to 100 nM; in test [2], 10 to 100 nM; in test [3] it was 100 to 1000 nM.

Take `CN(C)C(=O)c1ccc(-c2ccc(Nc3ccc(N4CCOCC4)nc3)nc2)cc1` [Example 60, N,N-dimethyl-4-(6-((6-morpholinopyridin-3-yl)amino)pyridin-3-yl)benzamide]: the half-inhibitory concentration (IC50) in test [1], in test [2] and in test [3] was above 1000 nM throughout.

Consider `Cc1nc2ncc(Nc3ccc(-c4ccc(C(=O)N(C)C)cc4)cn3)cc2o1` [Example 61, N,N-dimethyl-4-(6-((2-methyloxazolo[4,5-b]pyridin-6-yl)amino)pyridin-3-yl)benzamide], for which the values for the IC50 in test [1], in test [2] and in test [3] were above 1000 nM, 100 to 1000 nM and 100 to 1000 nM, respectively.

With `CN(C)C(=O)c1ccc(-c2ccc(Nc3cnc4c(c3)OCO4)nc2)cc1` [Example 62, 4-(6-([1,3]dioxolo[4,5-b]pyridin-6-ylamino)pyridin-3-yl)-N,N-dimethylbenzamide], the results for the IC50 in test [1], in test [2] and in test [3] were above 1000 nM, 100 to 1000 nM and 100 to 1000 nM, respectively.

Turning to `CN(Cc1cncs1)C(=O)c1ccc(-c2ccc(Nc3cccnc3)nc2)cc1` [Example 71, N-methyl-4-(6-(pyridin-3-ylamino)pyridin-3-yl)-N-(thiazol-5-ylmethyl)benzamide], the IC50 in test [1], in test [2] and in test [3] was above 1000 nM each time.

For the compound `CN(C)C(=O)c1ccc(-c2ccc(Nc3cncc(N4CCN(Cc5ccccc5)C4=O)c3)nc2)cc1` [Example 73, 4-(6-((5-(3-benzyl-2-oxoimidazolidin-1-yl)pyridin-3-yl)amino)pyridin-3-yl)-N,N-dimethylbenzamide], the figures for the IC50 in test [1], in test [2] and in test [3] were 10 to 100 nM, 1 to 10 nM and 1 to 10 nM, respectively.

In the case of `C[C@@H](c1ccccc1)N1CCN(c2cncc(Nc3ccc(-c4ccc(C(=O)N(C)C)cc4)cn3)c2)C1=O` [Example 80, (S)—N,N-dimethyl-4-(6-((5-(2-oxo-3-(1-phenylethyl)imidazolidin-1-yl)pyridin-3-yl)amino)pyridin-3-yl)benzamide], the IC50 in test [1], in test [2] and in test [3] was 10 to 100 nM throughout.

Take `C[C@H](c1ccccc1)N1CCN(c2cncc(Nc3ccc(-c4ccc(C(=O)N(C)C)cc4)cn3)c2)C1=O` [Example 81, (R)—N,N-dimethyl-4-(6-((5-(2-oxo-3-(1-phenylethyl)imidazolidin-1-yl)pyridin-3-yl)amino)pyridin-3-yl)benzamide]: the concentration for half-maximal inhibition (IC50) was 10 to 100 nM in test [1], at most 1 nM in test [2] and 1 to 10 nM in test [3].

As for `CC(C)(N)c1cc(Nc2cnc3c(c2)N2C(=O)CC[C@H]2CO3)ncc1-c1ccc(N2CCCC2=O)cc1F` [Example 266, (S)-2-((4-(2-aminopropan-2-yl)-5-(2-fluoro-4-(2-oxopyrrolidin-1-yl)phenyl)pyridin-2-yl)amino)-6,6a,7,8-tetrahydro-9H-pyrido[2,3-b]pyrrolo[1,2-d][1,4]oxazin-9-one], the IC50 in test [1] fell in the range of 10 to 100 nM; in test [3], 1 to 10 nM.

Regarding `CN1CCC(c2ccc(-c3ccc(Nc4cnc5c(c4)N4C(=O)CC[C@@H]4CO5)nc3)cc2)C1=O` (stereo partly drawn) [Example 269, (6aR)-2-((5-(4-(1-methyl-2-oxopyrrolidin-3-yl)phenyl)pyridin-2-yl)amino)-6,6a,7,8-tetrahydro-9H-pyrido[2,3-b]pyrrolo[1,2d][1,4]oxazin-9-one], the IC50 in test [1] and in test [3] was above 1000 nM each time.

Regarding `C[C@@]1(O)C[C@H]2COc3ncc(Nc4ccc(-c5ccc(N6CCCC6=O)c(F)c5)cn4)cc3N2C1=O` [Example 270, (6aS,8R)-2-((5-(3-fluoro-4-(2-oxopyrrolidin-1-yl)phenyl)pyridin-2-yl)amino)-8-hydroxy-8-methyl-6,6a,7,8-tetrahydro-9H-pyrido[2,3-b]pyrrolo[1,2-d][1,4]oxazin-9-one], the IC50 in test [1] and in test [3] was 10 to 100 nM throughout.

For the compound `C[C@@]1(O)C[C@H]2COc3ncc(Nc4ccc(-c5ccc(N6CCCC6=O)cc5)cn4)cc3N2C1=O` [Example 271, (6aS,8R)-8-hydroxy-8-methyl-2-((5-(4-(2-oxopyrrolidin-1-yl)phenyl)pyridin-2-yl)amino)-6,6a,7,8-tetrahydro-9H-pyrido[2,3-b]pyrrolo[1,2-d][1,4]oxazin-9-one], the IC50 in test [1] and in test [3] was 10 to 100 nM throughout.

Turning to `O=C1NCCN1c1cncc(Nc2ccc(-c3ccc(N4CCCC4=O)c(F)c3)cn2)c1` [Example 272, 1-(5-((5-(3-fluoro-4-(2-oxopyrrolidin-1-yl)phenyl)pyridin-2-yl)amino)pyridin-3-yl)imidazolidin-2-one], the IC50 in test [1] is 10 to 100 nM; in test [3], 100 to 1000 nM.

For `O=C1CCCN1c1ccc(-c2ccc(Nc3cnc4c(c3)N3C(=O)OC[C@H]3CO4)nc2)cc1F` [Example 295, (R)-8-((5-(3-fluoro-4-(2-oxopyrrolidin-1-yl)phenyl)pyridin-2-yl)amino)-3a,4-dihydro-1H,3H-oxazolo[3,4-d]pyrido[2,3-b][1,4]oxazin-1-one], the IC50 in test [1] fell in the range of 10 to 100 nM; in test [3], 1 to 10 nM.
